Results taken from US20240423941A1, “MEDIUM CHAIN DICARBOXYLIC ACIDS FOR THE TREATMENT AND PREVENTION OF DISEASES AND CONDITIONS” (University of Pittsburgh - Of the Commonwealth System of …, priority 2021, published 2024).
“Also recorded” adds a separate entry of the source.

Tests used:
[1] = system: long-chain acyl-CoA dehydrogenase (LCAD) knockout mice; experiment: LCAD knockout mice, model of mitochondrial long-chain fatty acid oxidation disorders; type: in vivo
Excerpt: FIG. 11A-11E. DC12 and DC10 improve functioning in long-chain acyl-CoA dehydrogenase (LCAD) knockout mice, a mouse model of mitochondrial long-chain fatty acid oxidation disorders.

[2] = system: lysine succinylation (Suc-Lys) PTMs; experiment: Western blotting of lysine succinylation in tissues of mice fed dicarboxylic acids; type: in vivo, wildtype C57Bl/6 mice; details: for lysine succinylation (Suc-Lys) PTMs in kidney / lysine succinylation (Suc-Lys) PTMs in liver: fed 10% w/w for 7 days
Excerpt: FIGS. 1A-1C. Feeding mice DCAs causes a dramatic shift in the post-translational modification (PTM) landscape. […] ND=normal diet. FIG. 1B) Mice were fed 10% DC12 for 0 to 7 days; some mice underwent a 7-day “washout” after 7 days on DC12.
FIG. 6. DC8 causes robust kidney specific succinylation. DC8, DC10 and DC12 were fed to wild-type mice at 10% w/w for 7 days.
(§1) We hypothesized that peroxisomes can chain-shorten DC12 as far as DC4-CoA, also known as succinyl-CoA. Such a mechanism would be predicted to 1) result in protein succinylation in the peroxisome, due to the known high chemical reactivity between lysine residues and succinyl-CoA; and 2) “feed” the mitochondrial TCA cycle with the products of DC12 chain-shortening, namely 2-carbon units (acetate) and succinate. We fed wildtype C57Bl/6 mice DC12 mixed into the diet and measured protein succinylation as a proxy for succinyl-CoA formation. […] The succinylation is seen to arise within 1 day and becomes maximal at 7 days (FIG. 1B). The effect is reversible when the diet is removed. DC12 degradation also produces acetyl-CoA. […] Like succinyl-CoA, glutaryl-CoA (DC5-CoA) is also highly reactive.
DC8 induces high-level, kidney-specific protein succinylation. […] Potential side effects caused by liver metabolization can be avoided, and the liver is not reducing the available agent.

[3] = system: unilateral ureteral obstruction (UUO); experiment: Unilateral ureteral obstruction (UUO) model of interstitial fibrosis; type: in vivo; details: DC8 fed versus control fed diet
Excerpt: FIG. 14. DC8 treatment was also protective against a chronic kidney disease model of interstitial fibrosis. As was evidenced in the control fed diet 14A and A′ when the kidney was subjected to unilateral ureteral obstruction (UUO) that there was a significant amount of trichrome positive fibrosis in the interstitium (blue).

ischemic AKI = experiment: Unilateral ischemic kidney injury (ischemic AKI); type: in vivo, male mice; details: for BUN / kidney damage by H & E staining (dilated tubules, proteinaceous casts) / serum creatinine: diet-fed versus normal diet; for expression of the injury marker NGAL in proximal tubules: immunostaining
Excerpt: FIG. 3. DC12 treatment mitigates ischemic kidney injury. Normal diet or DC12-fed male mice were subjected to ischemic AKI. […] Tubular dilation (arrows), debris, or proteinaceous casts are indicated (*). […] E,F) DC12-fed mice had lower serum creatinine and BUN, which are markers of kidney dysfunction. *p<0.05.
FIGS. 7A-7F. […] Normal diet or DC8-fed male mice were subjected to ischemic AKI. […] Tubular dilation (arrows), debris, or proteinaceous casts are indicated (*). […] FIGS. 7E,7F) DC8-fed mice had lower serum creatinine and BUN, which are markers of kidney dysfunction. ****p<0.0001.
DC12 is renoprotective. […] To test this, mice that had been fed ±10% DC12 for 7 days were subjected to unilateral ischemic kidney injury. In this model, the uninjured contralateral kidney is removed on Day 6 post-injury and used as control tissue, and the injured kidneys are collected one day later for analysis. The diet was continued during the 6-day recovery period post-injury, as well as after removing the contralateral kidney.
(§2) The effect of DC8 in ischemic AKI was also tested.

[4] = system: lysine glutarylation (Glu-Lys); experiment: Western blotting of lysine glutarylation in mice fed DC11; type: in vivo; details: 10% w/w for 7 days
cisplatin kidney injury = experiment: Nephrotoxic (cisplatin) model of AKI; type: in vivo, male 129 WT mice
Procedure: FIGS. 5A-5B. DC12 treatment mitigates cisplatin kidney injury. Normal diet or DC12-fed (7 days pre-treatment+3 days post-treatment) male 129 WT mice were injected i.p. with 18 mg/kg cisplatin and sacrificed at day 3. (FIG. 5A) Reduction of serum bicarbonate by cisplatin-AKI was mitigated in DC12 treated mice. (FIG. 5B) Renal tubular injury by cisplatin is mitigated in DC12 treated mice. Magnified images for dotted boxed areas are shown. Tubular dilation, debris, or proteinaceous casts are indicated(*) n=6-7, mean±SEM, t-test, *p<0.05, Scale bars: 50 um
We also conducted a nephrotoxic model of AKI (cisplatin).
as §2

protein acetylation = experiment: Protein acetylation with pan anti-acetyllysine antibody in DC12-fed mice; type: in vivo
Excerpt: as §1

[5] = system: lysine succinylation in liver peroxisomes; experiment: Lysine succinylation in liver peroxisomes and homogenates of WT versus Sirt5KO mice fed DC12; type: in vivo
Excerpt: FIGS. 2A-2C. […] FIG. 2A) Livers from N=3 mice fed DC12 for 7 days, separated by Histodenz gradient centrifugation to yield pure peroxisomes and blotted with anti-succinyllysine (SucLys). ND lanes=one control mouse of each genotype fed normal diet. Peroxisome fraction is positive for peroxisome marker PMP70 but negative for mitochondrial Tim23 except for WT sample #2 which had minor mitochondrial contamination. FIG. 2B) Densitometry from panel (FIG. 2A) showing total SucLys signal normalized to PMP70. FIG. 2C) Liver homogenates from normal diet (ND) and Sirt5KO mice (N=4) were subjected to quantitative site-level mass spectrometry for succinylated peptides. The Y-axis is Log 2 fold-change for each peptide relative to wild-type (WT) on ND. Each dot is an individual peptide.
An important question was whether Sirt5, a deacylase that can reverse succinylation and glutarylation, would offset and reverse the effects of feeding DCAs.

metformin overdose = experiment: Metformin overdose (lactic acidosis); type: in vivo, mice
Procedure: (§3) FIGS. 10A-10D. DC12 protects against lactic acidosis. Wildtype mice were maintained on DC12 diet for 7 days, then run on a treadmill to exhaustion. […] Then, mice fed DC12 were tested for protection against metformin overdose, which is clinically known to induce a lethal lactic acidosis. After a single 400 mg/kg dose of metformin, 9/11 mice on control diet died, while 0/12 mice on DC12 diet died (FIG. 10B).

[6] = system: lysine succinylation PTMs in kidney; experiment: Quantitative mass spectrometry of contralateral and injured kidneys (AKI ± DC12); type: in vivo, mice
Excerpt: FIGS. 4A-4C. Effects of injury and DC12 on protein succinylation PTMs. N=4 mice were subjected to AKI±7 days of 10% DC12. Contralateral (non-injured kidneys) served as control. Quantitative mass spectrometry was used to profile lysine succinylation PTMs at the protein and site-level. […] FIG. 4C) Succinylation of individual lysine-containing peptides from four key peroxisomal proteins, normalized to control diet non-injured levels.
Portions of contralateral control kidney and injured kidney were used for quantitative mass spectrometry, to measure both total protein abundance and site-level changes in lysine succinylation.

[7] = Body weight, food intake, grip strength and body composition (EchoMRI) in DC12-fed mice; type: in vivo
Procedure: FIGS. 8A-8G. […] FIG. 8A, 8B) Mice were fed DC12 for 5 weeks. Body weight and food weights were measured 3 times per week. […] Forelimb peak force was measured with a grip strength meter and normalized to body weight.

[8] = Treadmill run to exhaustion, blood lactate; type: in vivo, wildtype mice; details: DC12 diet for 7 days
Procedure: as §3

[9] = Indirect calorimetry (CLAMS) in DC12-fed mice; type: in vivo
Excerpt: FIGS. 9A-9D. DC12 increases whole-body energy expenditure and respiratory exchange ratio. Indirect calorimetry indicated increased whole-body respiration as measured in the CLAMS apparatus over 72 hrs, for both oxygen consumed (FIG. 9A) and carbon dioxide produced (FIG. 9B). […] The calculated energy expenditure in the DC12 group was higher (FIG. 9D).

SMILES: O=C(O)CCCCCCCCC(=O)O [DC10, decanedioic acid]
- blood lactate after acute exercise stress test on a treadmill ([1]; single dose): significantly lowered
- lysine succinylation (Suc-Lys) PTMs in kidney ([2]; western blotting): large increase; also recorded: stronger protein succinylation
- lysine succinylation (Suc-Lys) PTMs in liver ([2]; western blotting): moderate upregulation

SMILES: O=C(O)CCCCCCC(=O)O [DC8, octanedioic acid]
- interstitial fibrosis (trichrome) [3]: dramatically decreased
- lysine succinylation (Suc-Lys) PTMs in kidney ([2]; western blotting): dramatic increase; also recorded: stronger protein succinylation
- lysine succinylation (Suc-Lys) PTMs in liver ([2]; western blotting): not the liver
- kidney function (ischemic AKI; after ischemic injury): dramatically improved
- BUN (ischemic AKI): lower
- kidney damage by H & E staining (dilated tubules, proteinaceous casts) (ischemic AKI): reduced kidney damage; also recorded: marked reduction in kidney damage
- serum creatinine (ischemic AKI): lower
- expression of the injury marker NGAL in proximal tubules (ischemic AKI): markedly reduced

SMILES: O=C(O)CCCCCCCCCC(=O)O [DC11, undecanedioic acid]
- lysine glutarylation (Glu-Lys) in liver and kidney [4]: massive increase; also recorded: high-level protein glutarylation

SMILES: O=C(O)CCCCCCCCCCC(=O)O [DC12, dodecanedioic acid]
- reduction of serum bicarbonate by cisplatin-AKI (cisplatin kidney injury; 18 mg/kg cisplatin i.p., day 3): mitigated; also recorded: improved functionality
- renal tubular injury by cisplatin (histology) (cisplatin kidney injury; 18 mg/kg cisplatin i.p., day 3): mitigated; also recorded: less structural damage
- protection against injury in cisplatin model (cisplatin kidney injury; mouse, in vivo): protected against injury
- fasting glucose ([1]; two weeks on 10% DC12 diet): improved
- forelimb grip strength ([1]; two weeks on 10% DC12 diet): improved
- spontaneous locomotion ([1]; two weeks on 10% DC12 diet): improved
- time spent resting ([1]; two weeks on 10% DC12 diet): less
- protein acetylation (protein acetylation): no changes were observed
- lysine succinylation in liver peroxisomes, WT versus Sirt5-/- ([5]; 10% DC12 for 7 days, anti-succinyllysine blot): equal lysine succinylation
- succinylated peptides, fold-change relative to WT on normal diet ([5]; liver, quantitative mass spectrometry): very high fold-changes in succinylation in both genotypes; also recorded: increases lysine succinylation dramatically
- reversibility of succinylation ([2]; 7-day washout after 7 days on DC12): reversible
- time at which succinylation becomes maximal ([2]; 10% DC12 for 0 to 7 days): 7 days
- time for succinylation to arise ([2]; 10% DC12 for 0 to 7 days): ≤ 1 days
- succinylation in muscle, heart, and brain ([2]; DC12 mixed into the diet, western blotting): no change
- lysine succinylation (Suc-Lys) PTMs in kidney ([2]; western blotting): massive increase; also recorded: moderate increase; also recorded: massive upregulation
- lysine succinylation (Suc-Lys) PTMs in liver ([2]; western blotting): massive increase; also recorded: large increase; also recorded: massive upregulation; also recorded: strongest protein succinylation
- blood glucose levels relative to control (metformin overdose; 2 hr post-metformin injection): twice as high as control
- lactate levels, lower than control (metformin overdose; 2 hr post-metformin injection): 50%
- mice that died (metformin overdose; single 400 mg/kg dose of metformin): 0/12
- lysine succinylation in kidney ([6]; 7 days of 10% DC12, quantitative mass spectrometry): massively increased; also recorded: massive effects
- succinylation level of kidney peroxisomal proteins ([6]; compared to baseline (contralateral)): greatly increased
- protein expression in kidney ([6]; total protein abundance, quantitative mass spectrometry): very minimal if any effect
- fat mass ([7]; 5 weeks or 9 weeks, EchoMRI): reduces fat mass
- lean mass ([7]; 5 weeks or 9 weeks, EchoMRI): not altering lean mass
- liver fat (triacylglycerol, TAG) ([7]; at sacrifice): also reduced
- mass of the intra-abdominal fat pad (epididymal) ([7]; at sacrifice): significantly reduced
- body weight ([7]; fed DC12 for 5 weeks): reduced body weight
- food intake ([7]; fed DC12 for 5 weeks): without changing food intake
- muscle strength (forelimb peak force normalized to body weight) ([7]; grip strength meter): does not reduce muscle strength
- blood lactate at exhaustion [8]: significantly reduced
- whole-body respiration, carbon dioxide produced ([9]; CLAMS over 72 hrs): increased
- whole-body respiration, oxygen consumed ([9]; CLAMS over 72 hrs): increased
- respiratory exchange ratio (RER) ([9]; dark period): shift toward a higher RER
- calculated energy expenditure ([9]; mouse, in vivo): higher
- BUN (ischemic AKI): lower; also recorded: significantly reduced
- kidney damage by H & E staining (dilated tubules, proteinaceous casts) (ischemic AKI): reduced kidney damage; also recorded: reduced the number of dilated tubules and proteinaceous casts
- serum creatinine (ischemic AKI): lower; also recorded: significantly reduced
- expression of the injury marker NGAL in proximal tubules (ischemic AKI): markedly reduced; also recorded: less induction
